PubChem BioAssay AID2060896 (Molecular Pharmacology Branch, DTP, NCI, 2025)

System: 941728-121-R-J1-PDC complex spheroid viability
Test: Anticancer human tumor 941728-121-R-J1-PDC patient-derived lung adenocarcinoma cell line growth inhibition [RAS]
Settings: for IC50: curve of first compound; for viability, T/C: stronger effect = lower value; active = viability on the fitted dose curve at most 10% of control; inactive = the rest
Procedure, shortened: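 Agents were tested in combination matrices in half-log decrements from a top concentration at or near clinical Cmax (10 microM if undetermined). Targets were multi-cell spheroids of tumour lines plus HUVEC and MSC stromal cells.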

[1] = second compound 0.0316 µM, first compound 0.0316 µM
[2] = second compound 0.0316 µM, first compound 0.1 µM
[3] = second compound 0.0316 µM, first compound 0.316 µM
[4] = second compound 0.0316 µM, first compound 1 µM
[5] = second compound 0.1 µM, first compound 0.0316 µM
[6] = second compound 0.1 µM, first compound 0.1 µM
[7] = second compound 0.1 µM, first compound 0.316 µM
[8] = second compound 0.1 µM, first compound 1 µM
[9] = second compound 0.316 µM, first compound 0.0316 µM
[10] = second compound 0.316 µM, first compound 0.1 µM
[11] = second compound 0.316 µM, first compound 0.316 µM
[12] = second compound 0.316 µM, first compound 1 µM
[13] = second compound 1 µM, first compound 0.0316 µM
[14] = second compound 1 µM, first compound 0.1 µM
[15] = second compound 1 µM, first compound 0.316 µM
[16] = second compound 1 µM, first compound 1 µM
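Note: spheroids exposed to compounds for 7 days before readout.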
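Throughout, for viability, T/C: 100% = DMSO vehicle control viability.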

Cc1nc(N2CCC3(CC2)COC(C)C3N)c(CO)nc1Sc1ccnc(N)c1Cl (stereo unspecified) + CCn1c(-c2cc(N3CCN(C)CC3)cnc2C(C)OC)c2c3cc(ccc31)-c1csc(n1)CC(NC(=O)C1CC1C)C(=O)N1CCCC(N1)C(=O)OCC(C)(C)C2
inactive: viability, T/C (second compound 0.000949 µM, first compound 0.0316 µM) 25.1% | viability, T/C (second compound 0.000949 µM, first compound 0.1 µM) 21% | viability, T/C (second compound 0.000949 µM, first compound 0.316 µM) 14.6% | viability, T/C (second compound 0.000949 µM, first compound 1 µM) 19.2% | viability, T/C (second compound 0.000949 µM, first compound 3.16 µM) 18.7% | viability, T/C (second compound 0.000949 µM, first compound 10 µM) 12.9% | viability, T/C (second compound 0.003 µM, first compound 0.0316 µM) 19.2% | viability, T/C (second compound 0.003 µM, first compound 0.1 µM) 17.7% | viability, T/C (second compound 0.003 µM, first compound 0.316 µM) 13.3% | viability, T/C (second compound 0.003 µM, first compound 1 µM) 13.4% | viability, T/C (second compound 0.003 µM, first compound 3.16 µM) 13.6% | viability, T/C (second compound 0.003 µM, first compound 10 µM) 9.72% | viability, T/C (second compound 0.00949 µM, first compound 0.0316 µM) 14.6% | viability, T/C (second compound 0.00949 µM, first compound 0.1 µM) 12% | viability, T/C (second compound 0.00949 µM, first compound 0.316 µM) 12.8% | viability, T/C (second compound 0.00949 µM, first compound 1 µM) 13.6% | viability, T/C (second compound 0.00949 µM, first compound 3.16 µM) 11.9% | viability, T/C (second compound 0.00949 µM, first compound 10 µM) 11% | viability, T/C (second compound 0.03 µM, first compound 0.0316 µM) 11.9% | viability, T/C (second compound 0.03 µM, first compound 0.1 µM) 15.5% | viability, T/C (second compound 0.03 µM, first compound 0.316 µM) 13.9% | viability, T/C (second compound 0.03 µM, first compound 1 µM) 13.2% | viability, T/C (second compound 0.03 µM, first compound 3.16 µM) 9.2% | viability, T/C (second compound 0.03 µM, first compound 10 µM) 13.5% | viability, T/C (second compound 0.0949 µM, first compound 0.0316 µM) 13.3% | viability, T/C (second compound 0.0949 µM, first compound 0.1 µM) 14.4% | viability, T/C (second compound 0.0949 µM, first compound 0.316 µM) 12.8% | viability, T/C (second compound 0.0949 µM, first compound 1 µM) 14.3% | viability, T/C (second compound 0.0949 µM, first compound 3.16 µM) 9.5% | viability, T/C (second compound 0.0949 µM, first compound 10 µM) 11.1% | viability, T/C (second compound 0.3 µM, first compound 0.0316 µM) 13.1% | viability, T/C (second compound 0.3 µM, first compound 0.1 µM) 12.8% | viability, T/C (second compound 0.3 µM, first compound 0.316 µM) 12.6% | viability, T/C (second compound 0.3 µM, first compound 1 µM) 11.2% | viability, T/C (second compound 0.3 µM, first compound 3.16 µM) 12% | viability, T/C (second compound 0.3 µM, first compound 10 µM) 13.1%
< 31.6 nM: IC50 (second compound 0.000949 µM) | IC50 (second compound 0.003 µM) | IC50 (second compound 0.00949 µM) | IC50 (second compound 0.03 µM) | IC50 (second compound 0.0949 µM) | IC50 (second compound 0.3 µM)

CCC(CC)c1cc(NC2CCC(N)C2)n2nccc2n1 (stereo unspecified) + C#Cc1c(F)ccc2cc(O)cc(-c3ncc4c(N5CC6CCC(C5)N6)nc(OCC56CCCN5CC(F)C6)nc4c3F)c12
2100 nM: IC50 (second compound 0.0316 µM)
inactive: viability, T/C [1] 96.6% | viability, T/C [2] 82.6% | viability, T/C [3] 91.4% | viability, T/C [4] 90.5% | viability, T/C (second compound 0.0316 µM, first compound 3.16 µM) 19.2% | viability, T/C (second compound 0.0316 µM, first compound 10 µM) 36.7% | viability, T/C [5] 96.1% | viability, T/C [6] 79% | viability, T/C [7] 78.5% | viability, T/C [8] 84.1% | viability, T/C (second compound 0.1 µM, first compound 3.16 µM) 20.8% | viability, T/C (second compound 0.1 µM, first compound 10 µM) 31.4% | viability, T/C [9] 60.9% | viability, T/C [10] 83.7% | viability, T/C [11] 59.5% | viability, T/C [12] 63.1% | viability, T/C (second compound 0.316 µM, first compound 3.16 µM) 18.4% | viability, T/C (second compound 0.316 µM, first compound 10 µM) 29.7% | viability, T/C [13] 40.1% | viability, T/C [14] 40.1% | viability, T/C [15] 41.4% | viability, T/C [16] 46.2% | viability, T/C (second compound 1 µM, first compound 3.16 µM) 18.7% | viability, T/C (second compound 1 µM, first compound 10 µM) 32.7% | viability, T/C (second compound 3.16 µM, first compound 0.0316 µM) 31.5% | viability, T/C (second compound 3.16 µM, first compound 0.1 µM) 33.1% | viability, T/C (second compound 3.16 µM, first compound 0.316 µM) 37.6% | viability, T/C (second compound 3.16 µM, first compound 1 µM) 35.8% | viability, T/C (second compound 3.16 µM, first compound 3.16 µM) 15.3% | viability, T/C (second compound 3.16 µM, first compound 10 µM) 34.3% | viability, T/C (second compound 10 µM, first compound 0.0316 µM) 23.2% | viability, T/C (second compound 10 µM, first compound 0.1 µM) 25.9% | viability, T/C (second compound 10 µM, first compound 0.316 µM) 27.2% | viability, T/C (second compound 10 µM, first compound 1 µM) 25.6% | viability, T/C (second compound 10 µM, first compound 3.16 µM) 11.4% | viability, T/C (second compound 10 µM, first compound 10 µM) 25.6%
1970 nM: IC50 (second compound 0.1 µM)
< 31.6 nM: IC50 (second compound 1 µM) | IC50 (second compound 3.16 µM) | IC50 (second compound 10 µM)
1470 nM: IC50 (second compound 0.316 µM)

C=CC(=O)Nc1cc(Nc2nccc(-c3cn(C)c4ccccc34)n2)c(OC)cc1N(C)CCN(C)C + C=CC(=O)N1CCN(c2nc(OCC3CCCN3C)nc3c(F)c(-c4nc(N)cc(C)c4C(F)(F)F)c(Cl)cc23)C(C)C1
< 3.16 nM: IC50 (second compound 0.00316 µM) | IC50 (second compound 0.01 µM) | IC50 (second compound 0.0316 µM) | IC50 (second compound 0.1 µM) | IC50 (second compound 0.316 µM) | IC50 (second compound 1 µM)
inactive: viability, T/C (second compound 0.00316 µM, first compound 0.00316 µM) 17.3% | viability, T/C (second compound 0.00316 µM, first compound 0.01 µM) 25.6% | viability, T/C (second compound 0.00316 µM, first compound 0.0316 µM) 17.1% | viability, T/C (second compound 0.00316 µM, first compound 0.1 µM) 21.1% | viability, T/C (second compound 0.00316 µM, first compound 0.316 µM) 17.6% | viability, T/C (second compound 0.00316 µM, first compound 1 µM) 16.7% | viability, T/C (second compound 0.01 µM, first compound 0.00316 µM) 20.4% | viability, T/C (second compound 0.01 µM, first compound 0.01 µM) 18.3% | viability, T/C (second compound 0.01 µM, first compound 0.0316 µM) 19.5% | viability, T/C (second compound 0.01 µM, first compound 0.1 µM) 18.2% | viability, T/C (second compound 0.01 µM, first compound 0.316 µM) 14.4% | viability, T/C (second compound 0.01 µM, first compound 1 µM) 17.3% | viability, T/C (second compound 0.0316 µM, first compound 0.00316 µM) 18.4% | viability, T/C (second compound 0.0316 µM, first compound 0.01 µM) 16.9% | viability, T/C [1] 17.2% | viability, T/C [2] 17.9% | viability, T/C [3] 17.5% | viability, T/C [4] 15.8% | viability, T/C (second compound 0.1 µM, first compound 0.00316 µM) 21.1% | viability, T/C (second compound 0.1 µM, first compound 0.01 µM) 19.7% | viability, T/C [5] 15.5% | viability, T/C [6] 15.8% | viability, T/C [7] 18.7% | viability, T/C [8] 16.4% | viability, T/C (second compound 0.316 µM, first compound 0.00316 µM) 19.8% | viability, T/C (second compound 0.316 µM, first compound 0.01 µM) 18.1% | viability, T/C [9] 15.7% | viability, T/C [10] 17.1% | viability, T/C [11] 19.7% | viability, T/C [12] 15.6% | viability, T/C (second compound 1 µM, first compound 0.00316 µM) 20.6% | viability, T/C (second compound 1 µM, first compound 0.01 µM) 15.7% | viability, T/C [13] 18.2% | viability, T/C [14] 17.3% | viability, T/C [15] 18.9% | viability, T/C [16] 16.2%
